Key:
[1] = Permeability of Maropitant through artificial membranes, Franz cell model; assay type: in vitro ADME
Description: Numerous experiments were performed to improve the permeability of Maropitant through artificial membranes using the Franz cell model. Initially, solutions and suspensions of Maropitant and different acids at different ratios were prepared.
Based on the results obtained with the solution/suspension of Maropitant at different pH, Maropitant oral films with and without citric acid were prepared.

[2] = Solubility studies of Maropitant in solvents and solubility enhancers (visual inspection); assay type: physicochemical
Description: The following solubility studies were performed with Maropitant drug substance in various solvents and solubility enhancers. […] During solubility studies, the API was solubilized stepwise, in a series of permitted solvent (or a combination of solvent) with and without solubility enhancer. The solvent system was based on methanol, ethanol, isopropyl alcohol (IPA), acetone, methyl ethyl ketone (MEK), and water. Solubility enhancers included Maiscine CC (MGO) (HLB 1), medium chain triglyceride (MCT) oil (HLB 1), Labrafil 1944 cs (HLB 9), Labrafil 2125CS (HLB 9), Glycerine, Tween 20 (HLB 16,7), PEG 300, Propylene glycol, SLS (HLB 40). The resulting mixture was visually inspected to evaluate solubilization. The main equipment used were glass bottles, magnetic stir bars, stirrer plate, and sonicator.

[3] = cited from earlier work

COc1ccc(C(C)(C)C)cc1CN[C@H]1C2CCN(CC2)[C@H]1C(c1ccccc1)c1ccccc1 [Maropitant]
permeation of Maropitant solutions/suspensions at different pH ([1]; Maropitant/citric acid pH 4.24, 5.22, 6.22 and phosphate citrate buffer pH 8.0, FIG. 9): acidic environment promotes Maropitant permeation | Maropitant permeability of films with versus without citric acid ([1]; oral films with and without citric acid): improved | Solubility ([2]; Test 1, media Methanol): Up to 30 mg/1 g of solvent | Solubility ([2]; Test 2, media Ethanol): Up to 15 mg/1 g of solvent | Solubility ([2]; Test 3, media Isopropanol): insoluble | Solubility ([2]; Test 4, media Acetone): Up to 120 mg/1 g of solvent | Solubility ([2]; Test 5, media MEK): Up to 150 mg/1 g of solvent | Solubility ([2]; Test 6, MEK:Maiscine CC 40:2): Up to 180 mg/1 g of solvent | Solubility ([2]; Test 7, MEK:Maiscine CC 40:3): Up to 220 mg/1 g of solvent | Solubility ([2]; Test 8, MEK:MCT 40:2): Up to 220 mg/1 g of solvent | Solubility ([2]; Test 9, MEK:MCT 40:3): Up to 240 mg/1 g of solvent | Solubility ([2]; Test 10, MEK:PEG 300 40:2): Up to 180 mg/1 g of solvent | Solubility ([2]; Test 11, MEK:MCT:PEG 300 40:3:2): Up to 240 mg/1 g of solvent | Solubility ([2]; Test 12, MEK:Labrafil 1944CS 40:2): Up to 220 mg/1 g of solvent | Solubility ([2]; Test 13, MEK:Labrafil 1944CS:MCT 40:3:2): Up to 220 mg/1 g of solvent | Solubility ([2]; Test 14, MEK:Labrafil 1944CS:PEG 300 40:3:2): Up to 220 mg/1 g of solvent | Solubility ([2]; Test 15, MEK:Glycerine 40:2): Up to 135 mg/1 g of solvent | Solubility ([2]; Test 16, MEK:Tween 20 40:2): Up to 180 mg/1 g of solvent | Solubility ([2]; Test 17, MEK:Methanol 40:10): Up to 155 mg/1 g of solvent | Solubility ([2]; Test 18, MEK:Methanol:MCT 40:10:3): Up to 235 mg/1 g of solvent | Solubility ([2]; Test 19, MEK:Water 40:4.5): insoluble | Solubility ([2]; Test 20, MEK:Methanol:Labrafil 2125CCS:Tween 20 40:10:4:4): Up to 317 mg/1 g of solvent

CN1CC(=O)N2[C@H](c3ccc4c(c3)OCO4)c3[nH]c4ccccc4c3C[C@@H]2C1=O [Tadalafil]
solubility in water [3]: practically insoluble
